The results in this text go back to patent publication US20220062233A1 (The Board of Trustees of the Leland Stanford Junior …, priority 2018, published 2022).

Read-outs that look alike come from different tables or passages of the source.

Data set [1] concerns the target T1, interaction between Supt4h and NGN (subunit of Supt5h) (Homo sapiens, UniProt O00267+P63272).
T1 construct: expressed in transfected cells
The data set can be described thus: Split Gaussia luciferase complementation assay (M2-8 Luciferase). Format: cell-based. Particulars: M2-8 cells. On the procedure:
A. Split Gaussia Luciferase Complementation Assay […]
i: pNBR-X1-Supt4-Gluc1 and pNEBR-X1-NGN-Gluc2
The HA-Supt4h and Flag-NGN fragments are amplified by PCR using the plasmid pHA-Supt4h-YC and pFlag-NGN-YN and sub-cloned individually into pcDNA3.1-Gluc1 and pcDNA3.1-Gluc2 (described in “A highly sensitive protein-protein interaction assay based on Gaussia luciferase” published at Nat Methods. 2006 December; 3(12):977-9. Epub 2006 Nov. 12). Then HA-Supt4h-Gluc1 and Flag-NGN-Gluc2 are amplified by PCR and inserted to pNEBR-X1-Hygro (New England BioLabs), which contain RheoSwitch responsive element under the control of RheoSwitch ligand. […]
ii: pNEBR-X1-Supt4h-G1-NGN-G2
PCR products containing the sequence from 5XRE to polyA in pNEBR-X1-NGN-G2 are inserted to pNEBR-X1-Supt4h-G1 at Pcil site to generate Supt4h-G1 and NGN-G2 bidirectional under their own RheoSwitch responsive element and polyA in the same plasmid. […]
b. Stable Cloned Cell Line i: 293-R1 is a cloned cell line which is engineered to constitutively express RSL1 receptor/activator by transfecting HEK 293 cells with pNEBR-R1 plasmid (New England BioLabs) and selected with blasticidin. […]
ii: M2-8 is a cloned 293-R1 cell which can inducibly express pNEBR-X1-Supt4h-G1-NGN-G2 by addition of RSL1. Two point mutations ([…] and M110I) are introduced to the GL1 and GL2 for better stability according to “A high-throughput cell-based Gaussia luciferase reporter assay for identifying modulators of fibulin-3 secretion” published in J Biomol Screen. 2013 July; 18(6):647-58. The cell line is selected by hygromycin. […]
c. Cell Culture and Transfection Condition
All the HEK-293 cells and derivative clones are maintained in DMEM containing 10% FBS plus corresponding antibiotics (250 μg/ml hygromycin B, 10 μg/ml blasticidin or both) at 37° C., 5% CO2. All the transfections are done by using Lipofectamine 2000 (Invitrogen) according to the manufacturer's instructions. […]
d. Bioluminescence Assay from Cell Lysates
Plasmids harboring the Gluc1 and Gluc2 are co-transfected in a 1:1 ratio into 293-R1 cells plated on tissue culture treated 24-well plates using Lipofectamine 2000 according to the manufacturer's instructions. For stable M2-8 cells, the cells are directly plated into 96-well or 384-well white plates. Twenty-four hours later, RheoSwitch ligand with or without test compound is added to the cells for induction/drug treatment. After 24 hr, the cells are washed with PBS and the plate was stored at −20° C. overnight. Lysis buffer [30 mM Tris-HCl (pH 8.0) 5 mM NaCl, 0.1% Triton X-100] with 10 μg/ml native coelenterazine (Nanolight Technology) is then added to the cells at room temperature for one hour in the dark. After shaking for about 1 min, 40 μl of cell lysate are transferred to a white 96-well plate. For M2-8 in white micro plate, no transfer is needed. Signal intensities (integrated 100 ms) were read on Tecan Infinite M200 or M1000.
The split Gaussia luciferase complementation assay measures the interaction between Sup4h and NGN. NGN is the subunit of Supt5h that binds to Supt4h.

The test system of a further data set is M2-8 cells. The data set can be described thus: M2-8 Cell viability Assay. It is filed as cell-based. Particulars: at the concentration of 1000 nM.
The next data set has as its system mutant HTT. Briefly: Mutant HTT assay in lymphoblastoid cells (LBC), Western blot. It is filed as cell-based, human. Particulars: read-out: LBC IC20 (nM) mHTT, 3 days compound treatment. On the procedure:
(§1) B. Mutant and Wild-Type HTT Assay in Lymphoblastoid Cells (LBC)
(§2) a. Cell Culturing and Compound Treatment
(§3) Lymphoblastoid cells derived from a Huntington's disease patient with 250 CAG repeats in the mutant HTT allele (GM14044 from Coriell Institute) were cultured in RPMI 1640 (Corning Cellgro, 10-040-CV) containing fetal bovine serum (Atlanta Biologicals, S11150). 4×10^5 cells were seeded on a 24-well plate and incubated with testing compound for 3 days. The cell suspension was then transferred to a 1.5 ml Eppendorf tube. Cells were collected by centrifugation and washed once with PBS. After all liquid was removed, the cell pellet was placed at −80° C. for at least 10 minutes. Lysis buffer [30 mM Tris-HCl (pH 8.0), 5 mM NaCl, 0.1% Triton X-100] with the proteinase inhibitor cocktail (P8340 from Sigma-Aldrich) was then added to the cells. Following centrifugation (14 k rpm for 15 min at 4° C.), the supernatant was collected. The protein concentrations were determined by BCA assay (Pierce, ThermoFisher).
(§4) Equal amounts of protein were loaded onto 4-12% gel (Invitrogen, WG1403A). After electrophoresis, the gels were transferred to nitrocellulose membranes by wet transfer at 72V for 3 hrs. […] The protein levels of mutant HTT, wild-type HTT, TBP, and tubulin were determined by immunoblotting with anti-polyQ specific antibody (clone MW1), anti-Huntingtin antibody (Abcam, ab45169), anti-TBP antibody (Sigma, T1827) and anti-alpha tubulin antibody (Sigma, T9026). Blots were imaged on a Li-Cor Odyssey infrared imager. The band intensities were determined by Li-Cor Odyssey software.
In general terms: In western blotting, separated proteins are transferred to a membrane and probed.

A further data set concerns wild-type HTT. The data set can be described thus: Wild-type HTT assay in lymphoblastoid cells (LBC), Western blot. Format: cell-based, human. On the procedure: as §1, §2, §3, §4
Data set [2] deals with Lymphoblastoid cells (GM14044). The data set can be described thus: LBC cell viability (Cell Titer-Glo). The following applies: at the concentration of IC20, 3-day compound treatment. Format: cell-based, human. The procedure: Cell viability was determined by Cell Titer-Glo reagent (Promega, PRG9243). After 3-day compound treatment, 15 μl of cell suspension was taken out from plate and incubated with 10 μl of CTG reagent. The values of reaction mixture were detected by Tecan.
For orientation: Cellular ATP, detected with luciferase, serves as a proxy for viable cell number.

The mark [3] stands for this setting: 3 days compound treatment, read-out: LBC IC20 (nM) wtHTT.

As usually defined, the IC50 is the concentration that inhibits the measured activity by half. For orientation: IC20 means the concentration needed for an effect of 20%. For `Brc1ccc2[nH]c3c(c2c1)CCC[C@H]3NCc1cccc2ccccc12` [Compound 19, (R)-6-bromo-N-(naphthalen-1-ylmethyl)-2,3,4,9-tetrahydro-1H-carbazol-1-amine], the IC50 in data set [1] is ≤ 100 nM. Moreover, the “M2-8 Cell viability” value in the data set with M2-8 cells was “+ (cell viability is greater than 50% at the concentration of 1000 nM)”. Besides, the concentration for an effect of 20% (IC20) is 101 to 300 nM with mutant HTT and > 1000 nM with wild-type HTT (setting [3]). The “LBC viability at IC20” value in data set [2] is reported as “* (cell viability is greater than 60% at the concentration of IC20)”.

For `COc1cccc(CN[C@@H]2CCCc3c2[nH]c2ccc(Br)cc32)c1` [Compound 24, (R)-6-bromo-N-(3-methoxybenzyl)-2,3,4,9-tetrahydro-1H-carbazol-1-amine], the IC50 in data set [1] was ≤ 100 nM. Moreover, the “M2-8 Cell viability” value in the data set with M2-8 cells is “+ (cell viability is greater than 50% at the concentration of 1000 nM)”. Besides, the IC20 with mutant HTT is 101 to 300 nM; in the data set with wild-type HTT (setting [3]), > 1000 nM. In addition, the “LBC viability at IC20” value in data set [2] is reported as “* (cell viability is greater than 60% at the concentration of IC20)”.

With `N#Cc1ccc(CN[C@@H]2CCCc3c2[nH]c2ccc(Br)cc32)cc1` [Compound 26, (R)-4-(((6-bromo-2,3,4,9-tetrahydro-1H-carbazol-1-yl)amino)methyl)benzonitrile], the IC50 in data set [1] was 101 to 300 nM. For the same compound, in the data set on M2-8 cells, the “M2-8 Cell viability” value was “+ (cell viability is greater than 50% at the concentration of 1000 nM)”. Further, the concentration for an effect of 20% (IC20) in the data set with mutant HTT is 101 to 300 nM; in the data set on wild-type HTT (read-out: LBC IC20 (nM) wtHTT, 3 days compound treatment), > 1000 nM. Further, the “LBC viability at IC20” value in data set [2] was “* (cell viability is greater than 60% at the concentration of IC20)”.

As for `COCc1ccc(CN[C@@H]2CCCc3c2[nH]c2ccc(Br)cc32)cc1` [Compound 27, (R)-6-bromo-N-(4-(methoxymethyl)benzyl)-2,3,4,9-tetrahydro-1H-carbazol-1-amine], the IC50 in data set [1] is ≤ 100 nM. Besides, the “M2-8 Cell viability” value in the data set with M2-8 cells is reported as “+ (cell viability is greater than 50% at the concentration of 1000 nM)”. Further, the IC20 in the data set on mutant HTT was 101 to 300 nM; with wild-type HTT (setting [3]), > 1000 nM. In data set [2], the “LBC viability at IC20” value is reported as “* (cell viability is greater than 60% at the concentration of IC20)”.

As to `Nc1ccc(CN[C@@H]2CCCc3c2[nH]c2ccc(Br)cc32)cc1` [Compound 21, (R)—N-(4-aminobenzyl)-6-bromo-2,3,4,9-tetrahydro-1H-carbazol-1-amine], in data set [1], the concentration for half-maximal inhibition (IC50) is ≤ 100 nM. Besides, in the data set on M2-8 cells, the “M2-8 Cell viability” value is “+ (cell viability is greater than 50% at the concentration of 1000 nM)”. In addition, the concentration for an effect of 20% (IC20) was 101 to 300 nM in the data set with mutant HTT and > 1000 nM in the data set on wild-type HTT (setting [3]). Also, the “LBC viability at IC20” value in data set [2] is listed as “* (cell viability is greater than 60% at the concentration of IC20)”.

The compound `OCC#Cc1ccc2[nH]c3c(c2c1)CCC[C@H]3NCc1ccccc1` [Compound 7, (R)-3-(1-(benzylamino)-2,3,4,9-tetrahydro-1H-carbazol-6-yl)prop-2-yn-1-ol] came in with an IC50 in data set [1] of 301 to 1000 nM. In addition, in the data set on M2-8 cells, the “M2-8 Cell viability” value was “+ (cell viability is greater than 50% at the concentration of 1000 nM)”.

In data set [1], `COc1ccccc1CN[C@@H]1CCCc2c1[nH]c1ccc(Br)cc21` [Compound 23, (R)-6-bromo-N-(2-methoxybenzyl)-2,3,4,9-tetrahydro-1H-carbazol-1-amine] yielded an IC50 of 301 to 1000 nM. The “M2-8 Cell viability” value with M2-8 cells was “+ (cell viability is greater than 50% at the concentration of 1000 nM)”.

Consider `COCC(N[C@@H]1CCCc2c1[nH]c1ccc(Br)cc21)c1ccc(CN2CCOCC2)cc1` (some centres unmarked) [Compound 61], for which, in data set [1], the IC50 lay in the range of 101 to 300 nM. Besides, the “M2-8 Cell viability” value in the data set with M2-8 cells is “+ (cell viability is greater than 50% at the concentration of 1000 nM)”.

Regarding `COc1ccc(CN[C@@H]2CCCc3c2[nH]c2ccc(Br)cc32)cc1` [Compound 25, (R)-6-bromo-N-(4-methoxybenzyl)-2,3,4,9-tetrahydro-1H-carbazol-1-amine], the half-maximal inhibitory concentration (IC50) in data set [1] lay in the range of 101 to 300 nM. In the data set with M2-8 cells, the “M2-8 Cell viability” value was “+ (cell viability is greater than 50% at the concentration of 1000 nM)”. Moreover, the IC20 in the data set with mutant HTT was 301 to 1000 nM; with wild-type HTT (setting [3]), > 1000 nM. For the same compound, the “LBC viability at IC20” value in data set [2] is “* (cell viability is greater than 60% at the concentration of IC20)”.

`CC(C)(O)c1ccc(C(CO)N[C@@H]2CCCc3c2[nH]c2ccc(Br)cc32)cc1` (mixture of isomers) [Compound 51, 2-(4-(1-(((R)-6-bromo-2,3,4,9-tetrahydro-1H-carbazol-1-yl)amino)-2-hydroxyethyl)phenyl) propan-2-ol] returned an IC50 in data set [1] of 301 to 1000 nM. Moreover, in the data set on M2-8 cells, the “M2-8 Cell viability” value is given as “+ (cell viability is greater than 50% at the concentration of 1000 nM)”.

For the compound `CC(=O)N1CCN(Cc2ccc(CN[C@@H]3CCCc4c3[nH]c3ccc(Br)cc43)cc2)CC1` [Compound 73], the IC50 in data set [1] is 101 to 300 nM. In addition, the “M2-8 Cell viability” value in the data set on M2-8 cells is “+ (cell viability is greater than 50% at the concentration of 1000 nM)”.

In the case of `Oc1ccc(-c2ccc3[nH]c4c(c3c2)CCC[C@H]4NCc2ccccc2)cc1` [Compound 10, (R)-4-(1-(benzylamino)-2,3,4,9-tetrahydro-1H-carbazol-6-yl)phenol], in data set [1], the IC50 is > 1000 nM. The “M2-8 Cell viability” value with M2-8 cells is listed as “+ (cell viability is greater than 50% at the concentration of 1000 nM)”.

As to `C=C(C)c1ccc(CN[C@@H]2CCCc3c2[nH]c2ccc(Br)cc32)cc1` [Compound 47, (R)-6-bromo-N-(4-(prop-1-en-2-yl)benzyl)-2,3,4,9-tetrahydro-1H-carbazol-1-amine], the IC50 in data set [1] was in the range of 101 to 300 nM. Also, the “M2-8 Cell viability” value with M2-8 cells was “+ (cell viability is greater than 50% at the concentration of 1000 nM)”.
